The record followed here is ChEMBL document CHEMBL1201862, “PubChem BioAssay data set” (2004).

By GI50 is commonly meant the concentration giving 50% growth inhibition.

Some test systems named below: RXF 393; TK-10; HCC 2998; MOLT-4; SF-295; OVCAR-5; SK-MEL-2; SNB-75; HT-29; SF-268; DMS-114; M14; UO-31; HOP-92; Hs-578T; A498; MDA-N; T47D; SK-MEL-5; UACC-62.
Common to all, as to assay: DTP human tumour cell line panel, 48 h

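Where inhibition never reached the appropriate level, the endpoint shown equals the highest concentration tested. Otherwise, values were interpolated linearly from a five-concentration, 48-hour dose response in 96-well plates. At the GI50, growth is halved.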 Activity calls are given as the source filed them. Cut-off read from the data, not from the text of the source: active = GI50 up to about 1.1 µM and inactive = higher. Some results are limits rather than exact numbers.

In the case of `C=CCCOC(=O)CO[N+](=O)[O-]`, the GI50 in the assay on RXF 393, with TK-10, in the assay on HCC 2998, in the assay with MOLT-4, in the assay on SF-295 and with OVCAR-5 was > 100 µM (inactive) in each case. For the same molecule, the GI50 with SK-MEL-2, in the assay with SNB-75, in the assay on HT-29, in the assay with SF-268, in the assay on DMS-114 and in the assay with M14 was > 100 µM (inactive) in each case. Besides, the GI50 with UO-31 was > 100 µM (inactive).
Turning to `Cc1ccccc1OC(C)C(=O)NN1C(=O)CC(=O)N(c2ccc(Cl)cc2)C1=S` (centres undefined), the GI50 is 19.3 µM (inactive) in the assay with HOP-92; 63.2 µM (inactive) with Hs-578T; 20.7 µM (inactive) in the assay on A498; 32.1 µM (inactive) in the assay on MDA-N; 25 µM (inactive) in the assay with RXF 393; 44 µM (inactive) with TK-10. Besides, the GI50 with T47D was 34.6 µM (inactive); in the assay on HCC 2998 it was 27.4 µM (inactive); in the assay with MOLT-4, 30.5 µM (inactive); in the assay with SF-295, 36.8 µM (inactive); with OVCAR-5, 61.2 µM (inactive); in the assay on SK-MEL-2, 27.8 µM (inactive). Moreover, the GI50 in the assay on SK-MEL-5 is 25.1 µM (inactive); in the assay on UACC-62, 27.9 µM (inactive); with SNB-75 it was 35 µM (inactive); in the assay with HT-29 it was 39.5 µM (inactive); with SF-268 it was 50.9 µM (inactive); in the assay on M14, 44.8 µM (inactive). Also, in the assay with UO-31, the GI50 is 41 µM (inactive).
As for `OCC1OC(N2CCN(C3OC(CO)C(O)C(O)C3O)CC2)C(O)C(O)C1O` (centres undefined), the GI50 in the assay on HOP-92, in the assay on Hs-578T, with A498, with MDA-N, in the assay on RXF 393 and with TK-10 was > 100 µM (inactive) in each case. The GI50 in the assay with T47D, with HCC 2998, in the assay on MOLT-4, in the assay with SF-295, in the assay on OVCAR-5 and in the assay with SK-MEL-2 was > 100 µM (inactive) in each case. For the same molecule, the GI50 with SK-MEL-5, in the assay with UACC-62, in the assay with SNB-75, in the assay with HT-29, with SF-268 and in the assay with M14 was > 100 µM (inactive) each time. In addition, the GI50 in the assay on UO-31 is > 100 µM (inactive).
In the case of `CC(=O)Oc1ccc2c(c1)c1c(=O)oc(C)nc1n2Cc1ccccc1`, the GI50 in the assay with HOP-92 was 34 µM (inactive); in the assay with Hs-578T, > 73.6 µM (inactive); in the assay on A498 it was 23.4 µM (inactive); in the assay on MDA-N it was 27.5 µM (inactive); in the assay on RXF 393, 14.8 µM (inactive); with TK-10, 35.2 µM (inactive). For the same molecule, the GI50 is 33.5 µM (inactive) with T47D; > 100 µM (inactive) in the assay with HCC 2998; 71.8 µM (inactive) in the assay on MOLT-4; 43.6 µM (inactive) in the assay on SF-295; > 84.5 µM (inactive) in the assay with OVCAR-5; 19.2 µM (inactive) in the assay on SK-MEL-2. The GI50 with SK-MEL-5 is 40 µM (inactive); in the assay on UACC-62, 16.3 µM (inactive); in the assay with SNB-75, > 41.8 µM (inactive); in the assay with HT-29 it was > 89.3 µM (inactive); in the assay on SF-268, 17.6 µM (inactive); with M14, 40.3 µM (inactive). For the same molecule, the GI50 in the assay with UO-31 is 2.79 µM (inactive).
`COc1ccc(C(=O)/C=C2\C(=O)Nc3ccc(Br)cc32)cc1`: the GI50 was 3.24 µM (inactive) with HOP-92; 13.8 µM (inactive) with Hs-578T; 17.9 µM (inactive) in the assay on A498; 5.81 µM (inactive) with MDA-N; 2.29 µM (inactive) in the assay with RXF 393; 1.68 µM (inactive) in the assay on TK-10. For the same molecule, the GI50 in the assay on T47D was 11.5 µM (inactive); in the assay with HCC 2998, 4.26 µM (inactive); in the assay on MOLT-4, 2.41 µM (inactive); with SF-295, 16.2 µM (inactive); with OVCAR-5, 19.3 µM (inactive); with SK-MEL-2, 16.1 µM (inactive). The GI50 in the assay with SK-MEL-5 was 18.4 µM (inactive); in the assay with UACC-62, 13.9 µM (inactive); in the assay on SNB-75, 14.3 µM (inactive); in the assay on HT-29, 1.82 µM (inactive); with SF-268, 16.4 µM (inactive); in the assay on M14, 12 µM (inactive). For the same molecule, in the assay with UO-31, the GI50 was 2.24 µM (inactive).
`COC(=O)C1=C(O)C(C(=O)OC)[C@]2(O)[C@H](C(=O)OC)[C@H]1C[C@@H](c1ccc(C(F)(F)F)cc1)[C@H]2C(=O)OC` (some centres undefined): the GI50 with HOP-92 was 5.27 µM (inactive); in the assay on Hs-578T it was 4.43 µM (inactive); in the assay on A498, 3.37 µM (inactive); with MDA-N it was 3.27 µM (inactive); in the assay with RXF 393, 2.17 µM (inactive); with TK-10 it was 4.73 µM (inactive). In addition, the GI50 with T47D is 3.44 µM (inactive); in the assay on HCC 2998, 3.47 µM (inactive); in the assay on MOLT-4, 2.07 µM (inactive); in the assay with SF-295, 4 µM (inactive); in the assay on OVCAR-5, 3.63 µM (inactive); in the assay on SK-MEL-2, 2.79 µM (inactive). Besides, the GI50 with SK-MEL-5 was 2.49 µM (inactive); with UACC-62, 3.87 µM (inactive); in the assay on SNB-75 it was 4.13 µM (inactive); with HT-29 it was 4.68 µM (inactive); in the assay with SF-268, 4.47 µM (inactive); in the assay with M14, 3.81 µM (inactive). The GI50 with UO-31 is 2.84 µM (inactive).
In the case of `C[C@H]1COC2=C1C(=O)C(=O)c1c2ccc2c1CCCC2(C)C` [CRYPTOTANSHINONE], the GI50 in the assay on HOP-92 is 40.8 µM (inactive); with Hs-578T, 2.29 µM (inactive); with A498, 18.3 µM (inactive); in the assay on MDA-N, 1.61 µM (inactive); in the assay with RXF 393, 6.3 µM (inactive); in the assay on TK-10 it was 8.18 µM (inactive). Moreover, the GI50 with T47D was 9.46 µM (inactive); with HCC 2998 it was 2.48 µM (inactive); in the assay on MOLT-4 it was 4.24 µM (inactive); in the assay on SF-295 it was 1.68 µM (inactive); in the assay with OVCAR-5, 16.1 µM (inactive); in the assay with SK-MEL-2, 4.25 µM (inactive). The GI50 in the assay with SK-MEL-5 was 0.382 µM (active); in the assay with UACC-62 it was 2.03 µM (inactive); in the assay with SNB-75, 0.881 µM (active); in the assay on HT-29, 2.18 µM (inactive); with SF-268, 1.9 µM (inactive); with M14, 1.03 µM (active). For the same molecule, in the assay on UO-31, the GI50 was 4.7 µM (inactive).
As for `C[N+]1(CCN[N+]2(C)CCCCC2)CCc2ccccc2C1` (centres undefined), the GI50 with HOP-92, in the assay on Hs-578T, in the assay on A498, with MDA-N, in the assay on RXF 393 and in the assay with TK-10 was > 100 µM (inactive) in each case. The GI50 in the assay on T47D, with HCC 2998, in the assay with MOLT-4, with SF-295, in the assay on OVCAR-5 and in the assay with SK-MEL-2 was > 100 µM (inactive) each time. Moreover, the GI50 in the assay with SK-MEL-5, with UACC-62, with SNB-75, in the assay with HT-29, in the assay with SF-268 and with M14 was > 100 µM (inactive) each time. The GI50 in the assay with UO-31 was > 100 µM (inactive).
In the case of `CCC1=CCN(c2cc(C)ccn2)OC1c1ccccc1` (centres undefined), the GI50 is 29.3 µM (inactive) in the assay on RXF 393; 33.3 µM (inactive) with HCC 2998; 34.5 µM (inactive) in the assay on MOLT-4; 39.3 µM (inactive) with SF-295; > 100 µM (inactive) with OVCAR-5; 21.4 µM (inactive) with SK-MEL-2. For the same molecule, the GI50 in the assay with UACC-62 was 39.2 µM (inactive); in the assay on SNB-75, 45.6 µM (inactive); with HT-29, 29.3 µM (inactive); with SF-268, 86.5 µM (inactive); in the assay with DMS-114, 56.2 µM (inactive); in the assay on M14, 31.3 µM (inactive). Besides, the GI50 with UO-31 was 50 µM (inactive).
On to `C[C@@H]1C[C@H]2[C@@H]3CCC4=CC(=O)C=C[C@]4(C)[C@@]3(F)[C@@H](O)C[C@]2(C)[C@@]1(O)C(=O)CO` [DEXAMETHASONE], for which the GI50 is > 100 µM (inactive) in the assay on HOP-92; > 100 µM (inactive) with TK-10; 95.1 µM (inactive) with MOLT-4; > 100 µM (inactive) in the assay with OVCAR-5; > 100 µM (inactive) in the assay with SK-MEL-2; > 100 µM (inactive) with SK-MEL-5. Also, the GI50 in the assay with UACC-62 is > 100 µM (inactive); with HT-29, > 100 µM (inactive); in the assay on DMS-114, 95.9 µM (inactive); with M14 it was > 100 µM (inactive); in the assay with UO-31 it was > 100 µM (inactive).
As to `COc1cc2c3c4c1OCc1c5c(cc(c1-4)CC3[N+](C)(C)CC2)OCO5` (centres undefined), the GI50 in the assay on HOP-92 was > 100 µM (inactive); in the assay with Hs-578T it was 4.18 µM (inactive); in the assay on A498, > 100 µM (inactive); in the assay with MDA-N it was > 100 µM (inactive); in the assay with RXF 393 it was > 100 µM (inactive); with TK-10, > 100 µM (inactive). For the same molecule, the GI50 in the assay on T47D is > 100 µM (inactive); in the assay on HCC 2998, > 100 µM (inactive); in the assay with MOLT-4, > 100 µM (inactive); in the assay on SF-295, 6.05 µM (inactive); with OVCAR-5, > 100 µM (inactive); in the assay with SK-MEL-2, > 100 µM (inactive). For the same molecule, the GI50 was > 100 µM (inactive) with SK-MEL-5; > 100 µM (inactive) in the assay on UACC-62; 26.7 µM (inactive) with SNB-75; > 100 µM (inactive) in the assay with HT-29; 2.79 µM (inactive) in the assay with SF-268; > 100 µM (inactive) in the assay with M14. The GI50 with UO-31 was > 100 µM (inactive).
